Reference: ChEMBL document CHEMBL1909046, “DrugMatrix in vitro pharmacology data”

Key:
[1] = target: C-C chemokine receptor type 2 (Homo sapiens, UniProt P41597); type: cell membranes, Membrane; conditions: cho-k1; further: in other assays of this panel Not Active means under 50% inhibition at 10 µM
[2] = target: Receptor tyrosine-protein kinase erbB-2 (Homo sapiens, UniProt P04626); test: biochemical; type: cell-based, Insect cells; conditions: insect cells;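 further: inhibition of HER2 kinase enzyme activity, measured with Poly(Glu:Tyr) as the phosphorylation substrate; in other assays of this panel Not Active means under 50% inhibition at 10 µM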
[3] = target: T1, Cholecystokinin receptor type A (Homo sapiens, UniProt P32238); type: cell membranes, Membrane; conditions: 1321-n1; further: in other assays of this panel Not Active means under 50% inhibition at 10 µM
T1 sequence (P32238 whole entry): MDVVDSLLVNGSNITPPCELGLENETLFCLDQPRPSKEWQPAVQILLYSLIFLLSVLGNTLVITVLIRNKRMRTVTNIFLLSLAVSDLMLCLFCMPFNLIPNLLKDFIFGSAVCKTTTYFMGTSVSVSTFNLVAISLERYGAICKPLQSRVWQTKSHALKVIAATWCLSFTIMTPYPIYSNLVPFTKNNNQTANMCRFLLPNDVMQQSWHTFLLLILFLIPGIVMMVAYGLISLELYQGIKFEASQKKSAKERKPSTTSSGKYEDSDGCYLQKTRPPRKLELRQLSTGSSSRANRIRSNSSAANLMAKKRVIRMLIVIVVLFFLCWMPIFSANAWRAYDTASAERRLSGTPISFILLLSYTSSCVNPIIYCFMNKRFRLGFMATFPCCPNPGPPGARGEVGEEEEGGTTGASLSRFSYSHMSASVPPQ

[4] = target: Adenosine receptor A2a (Homo sapiens, UniProt P29274); test: DRUGMATRIX: Adenosine A2A radioligand binding (ligand: […]); type: cell membranes, HEK293, Membrane; conditions: hek293; Not Active = under 50% inhibition at 10 µM
[5] = target: cGMP-specific 3',5'-cyclic phosphodiesterase (Homo sapiens, UniProt O76074); test: DRUGMATRIX: Phosphodiesterase PDE5 enzyme inhibition (substrate: [3H]cGMP + cGMP); type: tissue-based, Platelet; conditions: platelet; Not Active = under 50% inhibition at 10 µM
[6] = DRUGMATRIX: Sigma2 radioligand binding (ligand: [3H] Ifenprodil); type: cell membranes, Rattus norvegicus, Wistar, Brain, Membrane; conditions: Not Active = under 50% inhibition at 10 µM
[7] = target: T2, Cysteinyl leukotriene receptor 1 (Homo sapiens, UniProt Q9Y271); type: cell membranes, Membrane; conditions: cho-k1; further: in other assays of this panel Not Active means under 50% inhibition at 10 µM
T2 sequence (Q9Y271 whole entry): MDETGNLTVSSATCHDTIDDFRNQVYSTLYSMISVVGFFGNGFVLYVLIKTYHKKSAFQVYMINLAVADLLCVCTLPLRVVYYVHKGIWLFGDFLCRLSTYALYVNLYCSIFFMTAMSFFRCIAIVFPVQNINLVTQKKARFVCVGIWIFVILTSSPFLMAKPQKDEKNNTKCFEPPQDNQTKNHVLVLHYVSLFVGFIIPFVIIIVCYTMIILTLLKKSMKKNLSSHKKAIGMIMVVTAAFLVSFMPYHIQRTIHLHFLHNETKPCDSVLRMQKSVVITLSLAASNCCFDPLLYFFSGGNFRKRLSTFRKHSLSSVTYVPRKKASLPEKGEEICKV

Chain of Adenosine receptor A2a (P29274 whole entry): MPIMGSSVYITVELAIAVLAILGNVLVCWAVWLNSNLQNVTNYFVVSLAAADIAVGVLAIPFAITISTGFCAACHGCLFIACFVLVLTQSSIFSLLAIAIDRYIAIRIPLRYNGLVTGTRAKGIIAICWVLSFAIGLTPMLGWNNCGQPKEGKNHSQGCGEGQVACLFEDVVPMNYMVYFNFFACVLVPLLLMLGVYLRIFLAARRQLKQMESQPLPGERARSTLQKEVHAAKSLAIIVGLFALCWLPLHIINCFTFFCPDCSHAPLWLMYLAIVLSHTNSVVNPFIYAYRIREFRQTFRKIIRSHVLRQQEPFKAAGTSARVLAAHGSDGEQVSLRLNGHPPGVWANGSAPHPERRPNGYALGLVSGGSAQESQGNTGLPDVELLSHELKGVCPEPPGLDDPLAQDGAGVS
Chain of Receptor tyrosine-protein kinase erbB-2 (P04626 whole entry): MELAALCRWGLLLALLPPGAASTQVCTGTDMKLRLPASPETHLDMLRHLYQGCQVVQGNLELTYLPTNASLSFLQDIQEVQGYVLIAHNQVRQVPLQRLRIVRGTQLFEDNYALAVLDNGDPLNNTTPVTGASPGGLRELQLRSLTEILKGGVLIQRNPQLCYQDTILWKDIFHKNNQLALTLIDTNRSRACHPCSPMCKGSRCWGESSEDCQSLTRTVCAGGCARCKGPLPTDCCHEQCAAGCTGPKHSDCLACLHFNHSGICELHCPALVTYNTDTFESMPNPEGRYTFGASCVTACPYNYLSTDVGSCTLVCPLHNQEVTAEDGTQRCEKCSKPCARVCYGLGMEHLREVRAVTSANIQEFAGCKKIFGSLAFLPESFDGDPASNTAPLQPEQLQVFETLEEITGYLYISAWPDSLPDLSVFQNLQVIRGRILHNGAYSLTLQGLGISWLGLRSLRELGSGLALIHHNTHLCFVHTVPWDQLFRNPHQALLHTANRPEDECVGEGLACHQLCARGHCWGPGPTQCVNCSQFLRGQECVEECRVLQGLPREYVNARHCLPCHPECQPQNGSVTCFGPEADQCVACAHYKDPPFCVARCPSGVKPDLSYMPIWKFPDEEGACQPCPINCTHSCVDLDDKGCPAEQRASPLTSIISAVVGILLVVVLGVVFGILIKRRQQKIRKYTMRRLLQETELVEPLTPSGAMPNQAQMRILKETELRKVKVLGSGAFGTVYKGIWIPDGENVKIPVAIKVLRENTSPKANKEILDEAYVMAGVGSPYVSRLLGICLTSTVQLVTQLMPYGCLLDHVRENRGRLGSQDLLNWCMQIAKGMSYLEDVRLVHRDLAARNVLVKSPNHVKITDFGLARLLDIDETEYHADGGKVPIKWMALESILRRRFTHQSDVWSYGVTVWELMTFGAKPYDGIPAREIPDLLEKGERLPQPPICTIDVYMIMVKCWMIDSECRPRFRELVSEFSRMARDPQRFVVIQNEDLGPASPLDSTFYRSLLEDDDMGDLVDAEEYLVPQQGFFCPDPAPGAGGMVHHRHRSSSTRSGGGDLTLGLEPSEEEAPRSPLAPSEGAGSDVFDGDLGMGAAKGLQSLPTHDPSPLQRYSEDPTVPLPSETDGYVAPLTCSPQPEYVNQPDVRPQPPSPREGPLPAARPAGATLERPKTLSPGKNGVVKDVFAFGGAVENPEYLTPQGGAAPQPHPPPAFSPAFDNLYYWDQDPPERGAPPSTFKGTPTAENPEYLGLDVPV
Chain of C-C chemokine receptor type 2 (P41597 whole entry): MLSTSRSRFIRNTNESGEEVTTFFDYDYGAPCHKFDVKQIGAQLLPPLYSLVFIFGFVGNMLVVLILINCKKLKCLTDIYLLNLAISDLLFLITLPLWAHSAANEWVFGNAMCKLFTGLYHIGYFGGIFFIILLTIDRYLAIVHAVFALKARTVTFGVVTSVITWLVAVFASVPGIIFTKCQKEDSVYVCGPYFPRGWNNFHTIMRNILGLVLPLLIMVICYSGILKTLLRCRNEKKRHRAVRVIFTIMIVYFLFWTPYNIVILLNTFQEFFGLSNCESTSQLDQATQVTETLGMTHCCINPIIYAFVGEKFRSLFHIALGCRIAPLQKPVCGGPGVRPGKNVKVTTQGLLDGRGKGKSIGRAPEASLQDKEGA

| Compound | IC50 [1] | IC50 [2] | IC50 [3] | IC50 [4] | IC50 [5] | IC50 [6] | Ki [6] | IC50 [7] | IC50 ([6]; read-out: IC50) | Ki ([6]; read-out: Ki) | Ki [1] | Ki [3] | Ki [4] | Ki [5] | Ki [7] |
| --- | --- | --- | --- | --- | --- | --- | --- | --- | --- | --- | --- | --- | --- | --- | --- |
| O=C(O)c1cc(-c2ccc(F)cc2F)ccc1O [DIFLUNISAL] | Not Active | Not Active | Not Active | Not Active | Not Active | Not Active | Not Active | Not Active |  |  |  |  |  |  |  |
| CCn1cc(C(=O)O)c(=O)c2cc(F)c(N3CCNC(C)C3)c(F)c21 (configuration not stated) [LOMEFLOXACIN] | Not Active | Not Active | Not Active | Not Active | Not Active | Not Active | Not Active | Not Active |  |  |  |  |  |  |  |
| CN(C)C(=O)Oc1cccc([N+](C)(C)C)c1.[Br-] [NEOSTIGMINE BROMIDE] | Not Active | Not Active | Not Active | Not Active | Not Active | Not Active | Not Active | Not Active |  |  |  |  |  |  |  |
| CN1CCCC(CN2c3ccccc3Sc3ccccc32)C1 (configuration not stated) [MEPAZINE] | Not Active | Not Active | Not Active | Not Active | Not Active |  |  | Not Active | 631 nM | 388 nM |  |  |  |  |  |
| ClC(Cl)(Cl)Cl [CARBON TETRACHLORIDE] | Not Active | Not Active | Not Active | Not Active | Not Active | Not Active | Not Active | Not Active |  |  |  |  |  |  |  |
| CCN(CC)CCCC(C)Nc1c2ccc(Cl)cc2nc2ccc(OC)cc12 (configuration not stated) [QUINACRINE] | Not Active | Not Active | Not Active | Not Active | Not Active | Not Active | Not Active | Not Active |  |  |  |  |  |  |  |
| CC[C@H]1[C@@H]2C[C@H]3[C@@H]4N(C)c5ccccc5[C@]45C[C@@H]([C@@H]2[C@H]5O)N3[C@@H]1O [AJMALINE] | Not Active | Not Active | Not Active | Not Active | Not Active | Not Active | Not Active | Not Active |  |  |  |  |  |  |  |
| C[C@H]1[C@H](NC(=O)/C(=N\OC(C)(C)C(=O)O)c2csc(N)n2)C(=O)N1S(=O)(=O)O [AZTREONAM] | Not Active | Not Active | Not Active | Not Active | Not Active | Not Active | Not Active | Not Active |  |  |  |  |  |  |  |
| CO/N=C(\C(=O)N[C@@H]1C(=O)N2C(C(=O)O)=C(COC(C)=O)CS[C@H]12)c1csc(N)n1 [CEFOTAXIME] | Not Active | Not Active | Not Active | Not Active | Not Active | Not Active | Not Active | Not Active |  |  |  |  |  |  |  |
| CC(C)c1c(C(=O)Nc2ccccc2)c(-c2ccccc2)c(-c2ccc(F)cc2)n1CC[C@@H](O)C[C@@H](O)CC(=O)O [ATORVASTATIN] | Not Active | Not Active | Not Active | Not Active | Not Active | Not Active | Not Active | Not Active |  |  |  |  |  |  |  |
| CC(C)C[C@H]1C(=O)N2CCC[C@H]2[C@]2(O)O[C@](NC(=O)[C@@H]3C=C4c5cccc6[nH]cc(c56)C[C@H]4N(C)C3)(C(C)C)C(=O)N12 [ERGOCRYPTINE] | Not Active | Not Active | Not Active | Not Active | Not Active | Not Active | Not Active | Not Active |  |  |  |  |  |  |  |
| COLISTIN | Not Active |  | Not Active | Not Active | Not Active | Not Active | Not Active | Not Active |  |  | Not Active | Not Active | Not Active | Not Active | Not Active |
| Cn1c(=O)c2c(ncn2C)n(C)c1=O [CAFFEINE] | Not Active | Not Active | Not Active |  | Not Active | Not Active | Not Active | Not Active |  |  |  |  |  |  |  |
